Source: US20250313574A1, “SIALIC ACID DERIVATIVES AND METHODS OF USING SAME” (EISAI R&D MANAGEMENT CO., LTD., priority 2022, published 2025)

Molecular target: Recombinant human CD33 protein (Homo sapiens (Human), UniProt P20138)
Assay: CD33 competitive binding assay for HTS drug screen (fluorescent multivalent sialic acid probe)
Description: This is a competitive binding assay that uses recombinant CD33 immobilized to a plate and a fluorescently-labeled multivalent sialic acid analog as a probe. Binding of drug to the site on CD33 to which sialic acid binds is detected by reduced binding of the fluorescent probe. Recombinant human CD33 protein (for example Acro Biosystems cat #CD3-H5257) was added at a concentration of 10 μg/ml in 20 mM acetate buffer (pH5.5) to a black plastic plate (Corning 4510) and allowed to incubate overnight at 4° C. The next day, the wells were washed 3 times with PBS containing 0.02% Tween-20. This was followed by a 30-minute incubation with PBS containing 0.2% Tween-20 and 0.5% BSA to block non-specific binding to the well. This buffer is removed and replaced with 10 μl of the same buffer, which is also used as the assay buffer. The fluorescent multivalent sialic acid probe was prepared as a 4× concentration as follows. A biotinylated sialic acid analog A-375 was mixed with biotin-4-Fluorescein isothiocyanate (biotin-4-FITC) at a 3:1 molar ratio with final concentrations (4× stock) of 60 μM A-375 and 20 μM biotin-4-FITC. After these were mixed, 20 μM of neutravidin was added, which should form complexes consisting of neutravidin, fluorescein and sialic acid with an average complex consisting of 1 neutravidin, 1 FITC and 3 sialic acid analogs. The multimerization of the sialic acid analog is critical to the assay and improves the affinity of the sialic acid analog several orders of magnitude. A test compound, for example A-001, is added at 5 μl to the 10 μl assay buffer already in the well. After a brief incubation, 5 μl of the 4× stock solution of sialic acid complexes was added. The final concentration of the complexes was therefore 5 μM neutravidin, 15 μM A-375 and 5 μM FITC. The plate was incubated at room temperature for 30 mins and then washed with PBS containing 0.2% Tween-20. Binding of the sialic acid complex is very stable, with an off-rate of several days. Bound complex was then detected using a standard plate reader to quantify FITC fluorescence.

Chain of Recombinant human CD33 protein (P20138 18-259): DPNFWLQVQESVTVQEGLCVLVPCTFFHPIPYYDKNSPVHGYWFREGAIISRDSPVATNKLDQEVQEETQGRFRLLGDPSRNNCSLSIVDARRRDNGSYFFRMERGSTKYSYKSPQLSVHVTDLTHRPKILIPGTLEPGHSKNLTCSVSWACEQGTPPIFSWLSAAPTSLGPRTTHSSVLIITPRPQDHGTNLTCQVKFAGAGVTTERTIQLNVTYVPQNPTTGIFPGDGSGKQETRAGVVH

SMILES	EC50
CC(=O)N[C@H]1[C@H]([C@H](O)[C@H](O)CNC(=O)c2cc(C)c(O)c(C)c2)O[C@@](CCN2CCOCC23CCN(C(=O)OC(C)(C)C)CC3)(C(=O)O)C[C@@H]1O [A-007]	0.811 µM
CC(=O)N[C@H]1[C@H]([C@H](O)[C@H](O)CNC(=O)c2cc(C)c(O)c(C)c2)O[C@@](CCN2CCOCC23CN(C(=O)OC(C)(C)C)C3)(C(=O)O)C[C@@H]1O [A-008]	0.538 µM
CC(=O)N[C@H]1[C@H]([C@H](O)[C@H](O)CNC(=O)c2cc(C)c(O)c(C)c2)O[C@@](CCN2CCC23CCN(C(=O)OC(C)(C)C)C3)(C(=O)O)C[C@@H]1O (stereo partly shown) [A-018]	0.162 µM
CC(=O)N[C@H]1[C@H]([C@H](O)[C@H](O)CNC(=O)c2cc(C)c(O)c(C)c2)O[C@@](CCN2CCC[C@@]23CCN(C(=O)OC(C)(C)C)C3)(C(=O)O)C[C@@H]1O [A-019]	0.028 µM
CC(=O)N[C@H]1[C@H]([C@H](O)[C@H](O)CNC(=O)c2cc(C)c(O)c(C)c2)O[C@@](CCN2CCC[C@]23CCN(C(=O)OC(C)(C)C)C3)(C(=O)O)C[C@@H]1O [A-020]	0.472 µM
C=C(OC(C)(C)C)N1CC2(CCN2CC[C@]2(C(=O)O)C[C@H](O)[C@@H](NC(C)=O)[C@H]([C@H](O)[C@H](O)CNC(=O)c3cc(C)c(O)c(C)c3)O2)C1 [A-021]	0.887 µM
CC(=O)N[C@H]1[C@H]([C@H](O)[C@H](O)CNC(=O)c2cc(C)c(O)c(C)c2)O[C@@](CCN2CCCCC23CCN(C(=O)OC(C)(C)C)C3)(C(=O)O)C[C@@H]1O (stereo partly shown) [A-022]	2.93 µM
C=C(OC(C)(C)C)N1CCC2(CC1)CCN2CC[C@]1(C(=O)O)C[C@H](O)[C@@H](NC(C)=O)[C@H]([C@H](O)[C@H](O)CNC(=O)c2cc(C)c(O)c(C)c2)O1 [A-023]	0.176 µM
COC[C@@]1(NCC[C@]2(C(=O)O)C[C@H](O)[C@@H](NC(C)=O)[C@H]([C@H](O)[C@H](O)CNC(=O)c3cc(C)c(O)c(C)c3)O2)CCN(C(=O)OC(C)(C)C)C1 [A-030]	0.049 µM
COC[C@@]1(N(C)CC[C@]2(C(=O)O)C[C@H](O)[C@@H](NC(C)=O)[C@H]([C@H](O)[C@H](O)CNC(=O)c3cc(C)c(O)c(C)c3)O2)CCN(C(=O)OC(C)(C)C)C1 [A-031]	0.07 µM
CC(=O)N[C@H]1[C@H]([C@H](O)[C@H](O)CNC(=O)c2cc(C)c(O)c(C)c2)O[C@@](CCN2CCOC[C@@]23CCN(c2cc(C)ccn2)C3)(C(=O)O)C[C@@H]1O [A-038]	0.053 µM
CC(=O)N[C@H]1[C@H]([C@H](O)[C@H](O)CNC(=O)c2cc(C)c(O)c(C)c2)O[C@@](CCN2CCOC[C@@]23CCN(c2cc(C(F)(F)F)ccn2)C3)(C(=O)O)C[C@@H]1O [A-039]	0.095 µM
CC(=O)N[C@H]1[C@H]([C@H](O)[C@H](O)CNC(=O)c2cc(C)c(O)c(C)c2)O[C@@](CCN2CCOC[C@@]23CCN(c2cc(N(C)C)ccn2)C3)(C(=O)O)C[C@@H]1O [A-041]	0.58 µM
C=C(C)c1ccc(C(C)(C)NC(=O)N2CC[C@@]3(COCCN3CC[C@]3(C(=O)O)C[C@H](O)[C@@H](NC(C)=O)[C@H]([C@H](O)[C@H](O)CNC(=O)c4cc(C)c(O)c(C)c4)O3)C2)cc1 [A-046]	0.063 µM
CC(=O)N[C@H]1[C@H]([C@H](O)[C@H](O)CNC(=O)c2cc(C)c(O)c(C)c2)O[C@@](CCN2CCOC[C@@]23CCN(C(=O)NC(C)(C)C(C)C)C3)(C(=O)O)C[C@@H]1O [A-050]	0.02 µM
CC(=O)N[C@H]1[C@H]([C@H](O)[C@H](O)CNC(=O)c2cc(C)c(O)c(C)c2)O[C@@](CCN2CCOC[C@@]23CCN(C(=O)NC2(c4ccccc4)CC2)C3)(C(=O)O)C[C@@H]1O [A-054]	0.147 µM
CC(=O)N[C@H]1[C@H]([C@H](O)[C@H](O)CNC(=O)c2cc(C)c(O)c(C)c2)O[C@@](CCN2CCOC[C@@]23CCN(C(=O)NC(C)(C)c2ccccc2)C3)(C(=O)O)C[C@@H]1O [A-055]	0.247 µM
CC(=O)N[C@H]1[C@H]([C@H](O)[C@H](O)CNC(=O)c2cc(C)c(O)c(C)c2)O[C@@](CCN2CCOC[C@@]23CCN(C(=O)N[C@H](C)c2ccc(Br)cc2)C3)(C(=O)O)C[C@@H]1O [A-056]	0.153 µM
CC(=O)N[C@H]1[C@H]([C@H](O)[C@H](O)CNC(=O)c2cc(C)c(O)c(C)c2)O[C@@](CCN2CCOC[C@@]23CCN(C(=O)C2CCCCC2)C3)(C(=O)O)C[C@@H]1O [A-067]	0.063 µM
CC(=O)N[C@H]1[C@H]([C@H](O)[C@H](O)CNC(=O)c2cc(C)c(O)c(C)c2)O[C@@](CCN2CCOC[C@@]23CCN(C(=O)CC(C)c2ccccc2)C3)(C(=O)O)C[C@@H]1O (stereo partly shown) [A-068]	0.101 µM
CC(=O)N[C@H]1[C@H]([C@H](O)[C@H](O)CNC(=O)c2cc(C)c(O)c(C)c2)O[C@@](CCN2CCOC[C@@]23CCN(C(=O)CC(C)(C)C)C3)(C(=O)O)C[C@@H]1O [A-072]	0.23 µM
CC(=O)N[C@H]1[C@H]([C@H](O)[C@H](O)CNC(=O)c2cc(C)c(O)c(C)c2)O[C@@](CCN2CCOC[C@@]23CCN(C(=O)CC2CCOCC2)C3)(C(=O)O)C[C@@H]1O [A-073]	0.206 µM

Second part, the compound after the results:

EC50	SMILES
44.5 µM	Cc1cc(C(=O)NCC(O)C[C@@H]2O[C@@](C/C=C/C3CCN(C(=O)OC(C)(C)C)C3)(C(=O)O)CCC2C)cc(C)c1O (single isomer, unassigned) [A-209]
21.4 µM	Cc1cc(C(=O)NCC(O)C[C@@H]2O[C@@](C/C=C/C3CCN(C(=O)OC(C)(C)C)C3)(C(=O)O)CCC2C)cc(C)c1O (single isomer, unassigned) [A-210]
15.2 µM	Cc1cc(C(=O)NCC(O)C[C@@H]2O[C@@](C/C=C/C3CCN(C(=O)OC(C)(C)C)C3)(C(=O)O)CCC2C)cc2cc[nH]c12 (single isomer, unassigned) [A-211]
17.4 µM	Cc1cc(C(=O)NCC(O)C[C@@H]2O[C@@](C/C=C/C3CCN(C(=O)OC(C)(C)C)C3)(C(=O)O)CCC2C)cc2cc[nH]c12 (single isomer, unassigned) [A-212]
17.9 µM	Cc1cc(C(=O)NCC(O)C[C@@H]2O[C@@](CCN3CCOC[C@@]34CCN(C(=O)OC(C)(C)C)C4)(C(=O)O)CCC2C)cc(C)c1O (single isomer, unassigned) [A-213]
9.8 µM	Cc1cc(C(=O)NCC(O)C[C@@H]2O[C@@](CCN3CCOC[C@@]34CCN(C(=O)OC(C)(C)C)C4)(C(=O)O)CCC2C)cc(C)c1O (single isomer, unassigned) [A-214]
60.4 µM	Cc1cc(C(=O)NCC(O)C[C@@H]2O[C@@](CCN3CCOC[C@@]34CCN(C(=O)OC(C)(C)C)C4)(C(=O)O)CCC2C)cc(C)c1O (single isomer, unassigned) [A-215]
0.263 µM	CC(=O)N[C@H]1[C@H]([C@H](O)[C@H](O)CNC(=O)c2cc(C)c(O)c(C)c2)O[C@@](CCN2CCOC[C@@]23CCN(C(=O)C2CCC(F)(F)C2)C3)(C(=O)O)C[C@@H]1O (stereo partly shown) [A-074]
0.099 µM	CC(=O)N[C@H]1[C@H]([C@H](O)[C@H](O)CNC(=O)c2cc(C)c(O)c(C)c2)O[C@@](CCN2CCOC[C@@]23CCN(C(=O)C2CCC(F)(F)CC2)C3)(C(=O)O)C[C@@H]1O [A-075]
0.226 µM	CC(=O)N[C@H]1[C@H]([C@H](O)[C@H](O)CNC(=O)c2cc(C)c(O)c(C)c2)O[C@@](CCN2CCOC[C@@]23CCN(C(=O)C(C)C2CCCCC2)C3)(C(=O)O)C[C@@H]1O (stereo partly shown) [A-076]
0.283 µM	CC(=O)N[C@H]1[C@H]([C@H](O)[C@H](O)CNC(=O)c2cc(C)c(O)c(C)c2)O[C@@](CCN2CCOC[C@@]23CCN(C(=O)C2(C)CCCO2)C3)(C(=O)O)C[C@@H]1O (stereo partly shown) [A-077]
1.95 µM	CC(=O)N[C@H]1[C@H]([C@H](O)[C@H](O)CNC(=O)c2cc(C)c(O)c(C)c2)O[C@@](CCN2CCOC[C@@]23CCN(C(=O)C(C)(C)Oc2ccccc2)C3)(C(=O)O)C[C@@H]1O [A-081]
> 5 µM	COC(C)C(=O)N1CC[C@@]2(COCCN2CC[C@]2(C(=O)O)C[C@H](O)[C@@H](NC(C)=O)[C@H]([C@H](O)[C@H](O)CNC(=O)c3cc(C)c(O)c(C)c3)O2)C1 (stereo partly shown) [A-082]
1 µM	CC(=O)N[C@H]1[C@H]([C@H](O)[C@H](O)CNC(=O)c2cc(C)c(O)c(C)c2)O[C@@](CCN2CCOC[C@@]23CCN(C(=O)COCC(C)C)C3)(C(=O)O)C[C@@H]1O [A-083]
1.56 µM	CC(=O)N[C@H]1[C@H]([C@H](O)[C@H](O)CNC(=O)c2cc(C)c(O)c(C)c2)O[C@@](CCN2CCOC[C@@]23CCN(C(=O)COC(C)C)C3)(C(=O)O)C[C@@H]1O [A-084]
1.28 µM	COC(C)(C)C(=O)N1CC[C@@]2(COCCN2CC[C@]2(C(=O)O)C[C@H](O)[C@@H](NC(C)=O)[C@H]([C@H](O)[C@H](O)CNC(=O)c3cc(C)c(O)c(C)c3)O2)C1 [A-085]
> 5 µM	CC(=O)N[C@H]1[C@H]([C@H](O)[C@H](O)CNC(=O)c2cc(C)c(O)c(C)c2)O[C@@](CCN2CCOC[C@@]23CCN(C(=O)c2c(C)cccc2C)C3)(C(=O)O)C[C@@H]1O [A-086]
5.26 µM	CC(=O)N[C@H]1[C@H]([C@H](O)[C@H](O)CNC(=O)c2cc(C)c(O)c(C)c2)O[C@@](CCN2CCOC[C@@]23CCN(C(=O)c2ccccn2)C3)(C(=O)O)C[C@@H]1O [A-087]
